The results in this text go back to patent publication US9657043B2, “Amine compound and use thereof for medical purposes” (MITSUBISHI TANABE PHARMA CORPORATION, priority 2012, dated 2017).

The subject of the assay is peripheral blood lymphocyte count. Nature of the assay: Evaluation of peripheral blood lymphocyte count-decreasing effect in mice. The following applies: Mus musculus, ip, intraperitoneal administration, 24 hr after administration, in 20% cyclodextrin, read-out: ED50 (dose necessary for 50% reduction of the lymphocyte count of vehicle group as 100%). The class given is in vivo, male BALB/c mice. As for the experimental part:
The compound of the present invention was dissolved or suspended in 20% cyclodextrin (manufactured by NIHON SHOKUHIN KAKO CO., LTD), and intraperitoneally administered to a 7- to 10-week-old male BALB/c mice (CHARLES RIVER LABORATORIES, JAPAN INC.) at a dose of 0.001-10 mg/kg body weight. After 24 hr from the administration of the compound of the present invention, peripheral blood (about 0.3 ml) was drawn from the postcava of the mouse with a heparin sodium (manufactured by NovoNordisk)-treated tuberculin syringe (manufactured by TERUMO CORPORATION) under ether anesthesia. The blood (0.1 ml) was hemolysed with an automatic hemolysis processing apparatus (TQ-Prep, manufactured by BECKMAN COULTER, Inc.), and the number of lymphocytes was counted with a Flow Cytometer (CYTOMICS FC 500, manufactured by BECKMAN COULTER, Inc.) by a gating method using scattering at the front and the side of the laser beam as indices and using Flow-Count™ Fluorospheres (manufactured by BECKMAN COULTER, Inc.), whose standard particle count is known, as internal standard. A dose necessary for 50% reduction of the lymphocyte count of vehicle group as 100% was calculated and used as ED50 value (mg/kg body weight).
For `CCCCCCOc1ccc2c(=O)c3ccc(CCC(N)(CO)CO)cc3sc2c1` [Example 20, 3-[3-amino-4-hydroxy-3-(hydroxymethyl)butyl]-6-hexyloxy-9H-thioxanthen-9-one], the ED50 amounted to 0.05 mg/kg.
`CCCCCOc1ccc2oc3ccc(CCC(N)(CO)CO)cc3c(=O)c2c1` [Example 22, 2-[3-amino-4-hydroxy-3-(hydroxymethyl)butyl]-7-pentyloxy-9H-xanthen-9-one]: the ED50 worked out at 0.07 mg/kg.
Regarding `CCCCCCOc1ccc2oc3ccc(CCC(N)(CO)CO)cc3c(=O)c2c1` [Example 23, 2-[3-amino-4-hydroxy-3-(hydroxymethyl)butyl]-7-hexyloxy-9H-xanthen-9-one], the 50% effective dose (ED50) is 0.03 mg/kg.
With `CCCCCOc1ccc2c(=O)c3ccc(CCC(N)(CO)CO)cc3oc2c1` [Example 41, 3-[3-amino-4-hydroxy-3-(hydroxymethyl)butyl]-6-pentyloxy-9H-xanthen-9-one], the ED50 is 0.37 mg/kg.
Turning to `NC(CO)(CO)CCc1ccc2sc3ccc(Oc4cccc(C(F)(F)F)c4)cc3c(=O)c2c1` [Example 44, 2-[3-amino-4-hydroxy-3-(hydroxymethyl)butyl]-7-[3-(trifluoromethyl)phenoxy]-9H-thioxanthen-9-one], the ED50 is 0.01 mg/kg.
As to `NC(CO)(CO)CCc1ccc2sc3cc(Oc4cccc(C(F)(F)F)c4)ccc3c(=O)c2c1` [Example 54, 2-[3-amino-4-hydroxy-3-(hydroxymethyl)butyl]-6-[3-(trifluoromethyl)phenoxy]-9H-thioxanthen-9-one], the ED50 came to 0.02 mg/kg.
Turning to `NC(CO)(CO)CCc1ccc2sc3cc(Oc4ccc(Cl)cc4)ccc3c(=O)c2c1` [Example 55, 2-[3-amino-4-hydroxy-3-(hydroxymethyl)butyl]-6-(4-chlorophenoxy)-9H-thioxanthen-9-one], the ED50 turned out to be 0.03 mg/kg.
As to `NC(CO)(CO)CCc1ccc2sc3ccc(Oc4cccc(Cl)c4)cc3c(=O)c2c1` [Example 76, 2-[3-amino-4-hydroxy-3-(hydroxymethyl)butyl]-7-(3-chlorophenoxy)-9H-thioxanthen-9-one], the ED50 turned out to be 0.04 mg/kg.
The figure for `Cl.NC(CO)(CO)CCc1ccc2c(=O)c3cc(Oc4cccc(C(F)(F)F)c4)ccc3oc2c1` [Example 83, 6-[3-amino-4-hydroxy-3-(hydroxymethyl)butyl]-2-[3-(trifluoromethyl)phenoxy]-9H-xanthen-9-one] is 0.05 mg/kg; for `NC(CO)(CO)CCc1ccc2oc3cc(Oc4ccc(F)cc4)ccc3c(=O)c2c1` [Example 105, 2-[3-amino-4-hydroxy-3-(hydroxymethyl)butyl]-6-(4-fluorophenoxy)-9H-xanthen-9-one] it is 0.22 mg/kg; for `COc1ccc(Oc2ccc3c(=O)c4cc(CCC(N)(CO)CO)ccc4oc3c2)cc1` [Example 108, 2-[3-amino-4-hydroxy-3-(hydroxymethyl)butyl]-6-(4-methoxyphenoxy)-9H-xanthen-9-one] it is 0.05 mg/kg.
With `NC(CO)(CO)CCc1ccc2oc3cc(Oc4ccc(F)c(Cl)c4)ccc3c(=O)c2c1` [Example 116, 2-[3-amino-4-hydroxy-3-(hydroxymethyl)butyl]-6-(3-chloro-4-fluorophenoxy)-9H-xanthen-9-one], the ED50 stood at 0.09 mg/kg.
Then `NC(CO)(CO)CCc1ccc2c(=O)c3cc(Oc4ccc(F)c(Cl)c4)ccc3oc2c1` [Example 138, 6-[3-amino-4-hydroxy-3-(hydroxymethyl)butyl]-2-(3-chloro-4-fluorophenoxy)-9H-xanthen-9-one], with 0.06 mg/kg.
`COc1ccc(Oc2ccc3c(=O)c4ccc(CCC(N)(CO)CO)cc4oc3c2)cc1` [Example 143, 3-[3-amino-4-hydroxy-3-(hydroxymethyl)butyl]-6-(4-methoxyphenoxy)-9H-xanthen-9-one]: the ED50 amounted to 0.14 mg/kg.
As for `Cl.NC(CO)(CO)CCc1ccc2oc3cc(-c4cccc(OC(F)(F)F)c4)ccc3c(=O)c2c1` [Example 164, 2-[3-amino-4-hydroxy-3-(hydroxymethyl)butyl]-6-[3-(trifluoromethoxy)phenyl]-9H-xanthen-9-one], the ED50 came to 0.04 mg/kg.
`NC(CO)(CO)CCc1ccc2oc3cc(-c4cccc(C(F)(F)F)c4)ccc3c(=O)c2c1` [Example 172, 2-[3-amino-4-hydroxy-3-(hydroxymethyl)butyl]-6-[3-(trifluoromethyl)phenyl]-9H-xanthen-9-one]: the ED50 was determined as 0.09 mg/kg.
Consider `CCCC/C=C/c1ccc2oc3cc(CCC(N)(CO)CO)ccc3c(=O)c2c1` [Example 180, 6-[3-amino-4-hydroxy-3-(hydroxymethyl)butyl]-2-[(1E)-hex-1-en-1-yl]-9H-xanthen-9-one], for which the ED50 stood at 0.03 mg/kg.
